Holding throughout (assay type): cell-based, human
Test [1] has as its system TNF-α/IFN-γ-exposed hPD-MSCs. The test can be described thus: Mitochondrial membrane potential and distribution, MitoSpy confocal microscopy. Conditions: TNF-α/IFN-γ-exposed MSCs treated with compound; FIG. 2A. The method, then: hPD-MSCs were stained with MitoSpy Orange CMTMRos (BioLegend, SanDiego, CA, USA) to observe mitochondrial membrane potential, and stained with […]. After 72 hours with or without […] treatment, hPD-MSCs were passaged on a gelatin-coated cover glass (Sigma, St. Louis, Missouri, USA) in 12-well plates (SPL) and stained 24 hours later. The hPD-MSCs were cultured in α-MEM containing 250 nM MitoSpy Green FM and 250 nM MitoSpy Orange CMTMRo for 30 minutes. Stained hPD-MSCs were fixed with 4% paraformaldehyde (Alfa Aesar, Ward Hill, Massachusetts, USA) for 5 minutes, and then stained with 1 μg/mL Hoechst 33342® (ThermoFisher) at room temperature for 5 minutes. Finally, the cover glass was mounted on a slide glass using a mounting solution (VectaShield, ThermoFisher) and samples were imaged with a confocal microscope (LSM880; Zeiss, Oberkochen, Germany). The fluorescence intensities of confocal images were quantified using ZEN 2018 Black and Blue edition software (Zeiss). […]

The test system of another test is IL-1β. The test can be described thus: Real-time qPCR, SASP factor IL-1β. The following applies: vs MSCs exposed to TNF-α/IFN-γ; FIG. 4A. The method, then: Real-time qPCR was performed using an Easy-Spin Total RNA Kit (iNtRON, Seongnam, Korea) to extract total RNA from hPD-MSCs and RNA concentration was adjusted to 100 ng/μL using a microplate spectrophotometer (Epoch™ Microplate Spectrophotometer, BioTek, Winooski, VT, USA), and the extracted RNA was reverse transcribed into cDNA using RT PreMix (dT20) (Bioneer, Seoul, Korea) using a SimpliAmp Thermal Cycler (Life Technologies, Carlsbad, CA, USA). Real-time qPCR was performed using a real-time PCR machine (CFX Connect, Bio-Rad, Hercules, CA, USA), SYBR Green Supermix (Bio-Rad) and the relevant primers, and all experiments were performed in triplicate for statistical analysis.
In the present experiment, the expression of IL-1β, IL-6, and monocyte chemotactic protein-1 (MCP-1), which are SASP-associated factors of the untreated MSC control, the TNF-α/IFN-γ-exposed MSC control (TI), and the experimental group treated with the example compound in the TNF-α/IFN-γ-exposed MSC control was analyzed by real-time qPCR. As the real-time qPCR analysis method, the same method described in Experimental Example 1-2 above was used, and the results are shown in FIGS. 4A to 4C.
In general terms: Real-time PCR tracks product formation cycle by cycle.

For test [2], the system named is TNF-α/IFN-γ-exposed hPD-MSCs. The test can be described thus: Oxygen consumption rate (OCR), Seahorse XFp Extracellular Flux Analyzer. The protocol: An oxygen consumption rate was measured to assess a mitochondrial metabolic state using a Seahorse XFp Extracellular Flux Analyzer (Agilent, Santa Clara, CA, USA). A total of 10,000 cells/well were seeded in Seahorse XFp cell culture miniplates and cultured with or without TNF-α, IFN-γ and the example compound for 24 hours prior to analysis. The growth medium was replaced with a Seahorse XF base medium containing 2 mM L-glutamine, 5.5 mM D-glucose, and 1 mM sodium pyruvate according to the composition of α-MEM. Cells were treated with 1 μM oligomycin, 0.5 μM FCCP, and 0.5 μM rotenone/antimycin A during the assay. The OCR was measured for 2 minutes after mixing for 3 minutes, and this process was repeated 12 times. A basal OCR was normalized according to the protein concentration determined by BCA analysis.
The OCRs of the untreated MSC control, the TNF-α/IFN-γ-exposed MSC control (TI), and the experimental group treated with the example compound in the TNF-α/IFN-γ-exposed MSC control were measured by the above method, and the results are shown in FIG. 3A.
The basal respiration, ATP production amount, proton leakage, and spare respiratory capacity (SRC) for each of the above samples are shown in FIGS. 3B to 3E.

The test system of test [3] is TNF-α/IFN-γ-exposed hPD-MSCs. The test can be described thus: MSC morphology: bright-field and phalloidin/Hoechst fluorescence images. Conditions: hPD-MSCs with 2.5 ng/mL TNF-α and 25 ng/mL IFN-γ, 24 hours; FIG. 1A. The protocol:
Human placenta-derived mesenchymal stem cells (hPD-MSCs) were harvested from inside the placental chorion, and the harvested cells were cultured in an alpha-Minimum Essential medium (Cytiva, Marlborough, MA, USA) supplemented with 10% fetal bovine serum (ThermoFisher, Waltham, MA, USA), 1% penicillin/streptomycin (ThermoFisher, Waltham, MA, USA), 25 ng/mL human fibroblast growth factor-4 (Peprotech, Rocky Hill, NJ, USA) and 1 μg/mL heparin (Merck, San Francisco, CA, USA). A total of 1×10^5 hPD-MSCs were seeded in a cell culture dish (90×20 mm) (SPL, Pocheon, Korea) and cultured at 37° C. in an incubator containing 5% CO2. The cells were subcultured every 4 days until reaching 70 to 80% confluency. Expanded cells were obtained at passage 12 or 13. During subculture, viable cells were stained with Trypan blue (Merck) and the number of cells was manually counted. […] The morphology of MSCs was confirmed by bright-field images and fluorescence microscope images, stained cells were identified by phalloidin, which specifically labels the F-actin structure, and Hoechst 33342, which labels nuclei, in the fluorescence image, and the results are shown in FIG. 1A. […]

Here are results for one compound from US20240374646A1, “COMPOSITION FOR INHIBITING INFLAMMATION OR AGING OF STEM CELLS, AND METHOD FOR INHIBITING INFLAMMATION OR AGING BY USING SAME” (MITOIMMUNE THERAPEUTICS INC., priority 2021, published 2024).

On to `O=S1(=O)CCN(Cc2cc(NC3CCOCC3)c3[nH]c(-c4ccccc4)cc3c2)CC1` [example compound, 5-[(1,1-dioxido-4-thiomorpholinyl)methyl]-2-phenyl-N-(tetrahydro-2H-pyran-4-yl)-1H-indole-7-amine], for which, in test [1], the “mitochondrial membrane potential and distribution” value is reported as “restored to quiescence”. Also, the “decrease of IL-1β expression” value in the test with IL-1β is “about 55%”. For the same compound, in test [2] (TNF-α/IFN-γ-exposed MSC control treated with compound, FIG. 3E), the “spare respiratory capacity (SRC)” value is listed as “almost the same value as the untreated MSC control”. Moreover, the “oxygen consumption rate (OCR)” value in test [2] (TNF-α/IFN-γ-exposed MSCs, 24 hours, FIG. 3A) was “restored TNF-α/IFN-γ-exposed MSCs to quiescence”. Besides, the “decrease of basal respiration” value in test [2] (vs TNF-α/IFN-γ-exposed MSC control (TI), FIG. 3B) was “about 80 pmol/min/cell”. The “downregulation of oxygen consumption amount for ATP production” value in test [2] (vs TNF-α/IFN-γ-exposed MSC control (TI), FIG. 3C) is given as “about 70 pmol/min/cell”. In test [3], the “abnormal morphology and disorganized microfilaments (F-actin cytoskeletal structure)” value was “remarkably improved to levels similar to those of the untreated MSC control”.
